According to patent publication US11198741B2, “Medicines for topic use based on sulfated hyaluronic acid as activating or inhibiting agent of the cytokine activity” (Fidia Farmaceutici S.p.A., priority 2009, dated 2021):
Read-outs that look alike come from different tables or passages of the source.

How the values were obtained:
[1] = test system: Vesicular stomatitis virus: VSV; format: cell-based
IL-10 = assay: Gene expression of IL-10 in human synoviocytes (PCR Real Time); format: cell-based; conditions: 3 days of treatment, FIG. 1: HAS1 0.5 mg/ml, HAS3 0.1 mg/ml, vs control treated with non-sulfated HA 200 KD
Experimental: (§1) Human synoviocytes previously expanded in vitro and maintained in a culture at 37° C. with a medium of DMEM containing 10% of FCS, were seeded at a concentration of 20,000 cells per well (synoviocytes are cells capable of producing various types of cytokines, and are therefore normally used for this type of experimental test). […] After 3 days of treatment, the PCR Real Time was effected to evaluate the gene expression of IL-10 and IL-12: the cell RNA was extracted using the “Trizol” method, following the indications of the supplier (TRIZOL reagent, LIFE Technologies, GIBCO BRL). In short, the cells were lysed by the addition of 1.0 ml of Trizol and the total RNA was quantified by measuring its absorbance at 260 nm. The appropriate primers were selected for each gene to be amplified, using the software Primer3 (Roche Molecular Diagnostics, Pleasanton, Calif., USA). The gene expression was evaluated by means of PCR Real Time effected with a Rotor-gene TM5500 (Corbett research, Sydney, Australia). The PCR reactions were effected using primers at […] and SYBR Green (Invitroge, Carlsbad, Calif., USA) at 40 cycles of 15 s at 95° C., and 1 min. at 60° C. The value of “Fluorescence thresholds (Ct)” was automatically determined by the software, evaluating an amplification coefficient for the genes studied between 92 and 110%. […]

IL-12 [2] = assay: Gene expression of IL-12 in human synoviocytes (PCR Real Time); format: cell-based; conditions: 3 days of treatment, FIG. 2: 0.5 mg/ml, vs control treated with non-sulfated HA 200 KD
Experimental: as §1

TNF receptor = assay: Inhibition of the binding of 125I-TNF to its receptor in U937 cells (Radioligand Binding); design: species or system human; conditions: 125I-TNF 0.028 nM, sample 1 mg/ml, 4° C. 3 hours, medium and low MW
Text: These experiments were effected to evaluate the effectiveness of the samples tested (prepared according to Examples 1-4) on the capacity of inhibiting the binding of TNF to its receptor expressed by cells of the I.S. normally used in vitro for this type of experiment, carried out with iodinated cytokine components for an evaluation in Radioligand Binding assays. The experimental procedure was effected as described in Baglioni C. et al., J Biol Chem, 1985, 260:13395-13397. In short, the line of human histiocytes of the lymphoma U937 was used, with characteristics of monocytes sensitive to the cytotoxic activity of TNF, expressing its relative receptor. […] At the end of the incubation, the cells were centrifuged with dibutylphthalate/dinonylphthalate 2/1 and the pellet obtained was counted in a γ-counter.

[3] = test system: Herpes Simplex Virus-1 (HSV-1: KOS, F and McIntyre strain); assay: Inhibition of viral cytopathogenicity in E6SM fibroblast cells, HSV-1; format: cell-based; conditions: 2nd day of incubation, numbers only in FIG. 10
[4] = test system: Herpes Simplex Virus-2 (HSV-2: G, 196 and Lyons strain); assay: Inhibition of viral cytopathogenicity in E6SM fibroblast cells, HSV-2; format: cell-based; conditions: 2nd day of incubation, numbers only in FIG. 10
[5] = test system: Cytomegalovirus (CMV: AD-169 and Davis strain); assay: Inhibition of Cytomegalovirus plaque formation in HEL cells; format: cell-based; conditions: numbers only in FIG. 11
Experimental: The activity of the samples tested was determined by evaluating the inhibition of the cytopathogenicity determined by Cytomegalovirus (CMV: AD-169 and Davis strain) using the previous protocol. The antiviral activity was tested vs HEL cells (pulmonary embryonic cells) and was expressed as the concentration required for inhibiting the number of plaques formed by the above virus by 50%.

IL-2 = assay: Protein synthesis of IL-2 in human PBMC (SearchLight array); conditions: not stimulated or stimulated with LPS or PHA (10 μg/ml), 24 hours, FIG. 6: HAS1 0.1 mg/ml, HAS3 1 mg/ml, vs HA
Experimental: (§2) For these experimentations, mononucleate cells of human peripheral blood (PBMC) were adopted, deriving from various donors for evaluating the effect of HAS on the production of the cytokines listed above, using:
(§3) The separation of the PBMC (Bøyum A., Scand J Clin Lab Invest 21 Suppl, 1968, 97:77-89) was effected using the product Ficoll-Paque PLUS (GE Healthcare) and following the protocol indicated by the supplier. At day zero 100,000 cells were plated per well (using plates with 96 wells) in 200 μl of medium RPMI 1640, to which 10% of fetal bovine serum, HEPES 10 mM, Glutamine 2 mM, 1% Penicillin-Streptomycin 100 U/ml, had been added. […] The cells were treated separately with the three compounds at a concentration of 0.1 mg/ml or 1 mg/ml. After 24 hours of incubation at 37° C. (5% CO2), 100 μl of supernatant were taken from each well in order to analyze the production of IL-2, IL-7, IL-10 and IL-12.
(§4) The quantification of the inflammation mediators was effected by means of the SearchLight® technology, using a Custom Human 9-flex Array plate following the protocol indicated by the supplier in the technical card.

IL-7 = assay: Protein synthesis of IL-7 in human PBMC (SearchLight array); conditions: not stimulated or stimulated with LPS or PHA (10 μg/ml), 24 hours, FIG. 7: 1 mg/ml, vs HA
Experimental: as §2, §3, §4

IL-12 [6] = assay: Protein synthesis of IL-12 in human PBMC (SearchLight array); conditions: not stimulated or stimulated with LPS or PHA (10 μg/ml), 24 hours, FIG. 8: 1 mg/ml, vs HA
Experimental: as §2, §3, §4

fibrin clot = target: T1, fibrin clot (Homo sapiens, UniProt P02671+P02675+P02679); assay: In vitro fibrinolytic activity: dissolution of fibrin clot in coagulated plasma (absorbance at 405 nm); format: biochemical; conditions: 37° C.
T1 sequence (P02671 20-644 isoform P02671-2 limits assumed): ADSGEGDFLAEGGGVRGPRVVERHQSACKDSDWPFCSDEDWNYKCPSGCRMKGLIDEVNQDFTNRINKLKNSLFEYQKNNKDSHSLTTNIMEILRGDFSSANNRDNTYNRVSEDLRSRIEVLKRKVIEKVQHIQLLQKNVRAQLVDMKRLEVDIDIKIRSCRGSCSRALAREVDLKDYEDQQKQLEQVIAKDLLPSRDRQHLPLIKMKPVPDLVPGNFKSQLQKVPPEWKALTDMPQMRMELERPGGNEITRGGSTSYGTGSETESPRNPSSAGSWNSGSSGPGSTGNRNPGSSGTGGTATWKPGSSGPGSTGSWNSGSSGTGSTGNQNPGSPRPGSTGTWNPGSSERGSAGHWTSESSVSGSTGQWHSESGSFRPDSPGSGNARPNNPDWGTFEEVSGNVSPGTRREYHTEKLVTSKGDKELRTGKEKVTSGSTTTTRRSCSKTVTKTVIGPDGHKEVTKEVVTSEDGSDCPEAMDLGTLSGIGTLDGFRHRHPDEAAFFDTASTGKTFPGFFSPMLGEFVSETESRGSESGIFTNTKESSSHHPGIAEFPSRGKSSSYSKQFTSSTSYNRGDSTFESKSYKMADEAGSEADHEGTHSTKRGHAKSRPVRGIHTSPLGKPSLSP
T1 sequence (P02675 45-491 limits assumed): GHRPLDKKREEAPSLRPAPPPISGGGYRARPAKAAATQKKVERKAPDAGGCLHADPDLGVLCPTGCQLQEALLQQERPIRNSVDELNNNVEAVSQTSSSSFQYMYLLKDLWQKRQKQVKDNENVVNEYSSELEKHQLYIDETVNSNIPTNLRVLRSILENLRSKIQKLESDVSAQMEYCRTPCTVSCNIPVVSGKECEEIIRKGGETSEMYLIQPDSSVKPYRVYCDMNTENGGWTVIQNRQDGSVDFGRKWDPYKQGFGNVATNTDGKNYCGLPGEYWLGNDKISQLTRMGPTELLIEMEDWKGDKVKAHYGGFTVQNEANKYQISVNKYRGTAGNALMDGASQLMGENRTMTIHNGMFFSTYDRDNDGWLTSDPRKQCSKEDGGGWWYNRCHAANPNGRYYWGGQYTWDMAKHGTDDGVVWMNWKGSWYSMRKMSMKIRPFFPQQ
T1 sequence (P02679 27-437 isoform P02679-2 limits assumed): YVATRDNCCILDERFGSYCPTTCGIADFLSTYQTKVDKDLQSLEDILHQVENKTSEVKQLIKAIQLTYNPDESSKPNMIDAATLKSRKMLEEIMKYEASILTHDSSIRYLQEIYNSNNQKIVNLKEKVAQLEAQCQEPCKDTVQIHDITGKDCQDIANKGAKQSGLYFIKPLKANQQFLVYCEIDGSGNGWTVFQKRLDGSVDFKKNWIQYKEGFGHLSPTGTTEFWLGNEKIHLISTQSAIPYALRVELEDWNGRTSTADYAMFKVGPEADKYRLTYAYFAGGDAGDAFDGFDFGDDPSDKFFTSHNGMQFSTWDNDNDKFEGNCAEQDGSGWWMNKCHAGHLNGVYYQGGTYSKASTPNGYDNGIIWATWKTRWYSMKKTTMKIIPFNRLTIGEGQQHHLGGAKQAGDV
Experimental: The evaluation of the fibrinolytic properties of the products subjected to the test was compared with the acknowledged fibrinolytic activity of the plasmin. In particular, the dissolution rate of the fibrin network and formation of soluble products of the fibrin degradation (FDP), was evaluated.
In order to test the fibrinolytic effectiveness of the products subjected to testing, the blood samples were distributed in various test-tubes in which the clot formation was induced.
The formation of FDP was then evaluated after the addition of:
The freshly removed blood samples were distributed in various test-tubes containing sodium citrate in a ratio of 9:1. The test-tubes were immediately centrifuged at 3,000 rpm for 5 minutes. The plasma obtained was transferred to a new test-tube and immediately used for effecting the FDP evaluation.
Thrombin (300 mU/ml), preheated to 37° C. was added to the plasma samples, as activator of the fibrinogen in inducing the formation of the clot.
The following were added to the different cuvettes containing the fibrin clot:
a plasmin solution 0.5 mU, 5 mU, 50 mU, 500 mU and 1 U
solutions of HAS3 at concentrations of 25 mg/ml, 50 mg/ml, 100 mg/ml, 150 mg/ml and 200 mg/ml.
The absorbance variation at 405 nm for 60 sec. was evaluated spectrophotometrically for each cuvette. The reaction was left to proceed until the complete dissolution of the clot.
Coagulated plasma, plasmin solution and a solution of HAS3 200 KD and HAS3 20 KD were mixed in a ratio of 1:1 v/v and maintained at an operating temperature of 37° C.

Nc1nc2c(ncn2COCCO)c(=O)[nH]1 [acyclovir, Acyclovir, reference compound]
antiviral activity (inhibition of the cytopathogenicity of the virus) vs VSV ([1]; E6SM cells, 2nd day of incubation, numbers only in FIG. 10): inactive

sulfated hyaluronic acid degree 1 [HAS1]
gene expression of the cytokine IL-10 (IL-10): significant increase
gene expression of IL-12 (synthesis of its mRNA) (IL-12 [2]): halving the synthesis of its mRNA
inhibition of the binding of TNF to its receptor (TNF receptor): 100%
antiviral activity (inhibition of the cytopathogenicity of the virus) vs HSV-1 [3]: powerful antiviral action
antiviral activity (inhibition of the cytopathogenicity of the virus) vs HSV-2 [4]: powerful antiviral action
antiviral activity (inhibition of the cytopathogenicity of the virus) vs VSV [1]: very powerful antiviral activity
antiviral activity vs Cytomegalovirus (inhibition of the number of plaques) [5]: clear and significant positive result
synthesis of IL-2 (IL-2): significantly reducing
synthesis of IL-7 (IL-7): significantly reducing
synthesis of IL-12 (IL-12 [6]): significantly reducing

B1: PLASMIN: enzyme of the group of hydrolases degrading fibrin; control treatment of acknowledged fibrinolytic activity (protein, UniProt P00747 20-580; P00747 581-810, looked up)
Plasmin heavy chain A: EPLDDYVNTQGASLFSVTKKQLGAGSIEECAAKCEEDEEFTCRAFQYHSKEQQCVIMAENRKSSIIIRMRDVVLFEKKVYLSECKTGNGKNYRGTMSKTKNGITCQKWSSTSPHRPRFSPATHPSEGLEENYCRNPDNDPQGPWCYTTDPEKRYDYCDILECEEECMHCSGENYDGKISKTMSGLECQAWDSQSPHAHGYIPSKFPNKNLKKNYCRNPDRELRPWCFTTDPNKRWELCDIPRCTTPPPSSGPTYQCLKGTGENYRGNVAVTVSGHTCQHWSAQTPHTHNRTPENFPCKNLDENYCRNPDGKRAPWCHTTNSQVRWEYCKIPSCDSSPVSTEQLAPTAPPELTPVVQDCYHGDGQSYRGTSSTTTTGKKCQSWSSMTPHRHQKTPENYPNAGLTMNYCRNPDADKGPWCFTTDPSVRWEYCNLKKCSGTEASVVAPPPVVLLPDVETPSEEDCMFGNGKGYRGKRATTVTGTPCQDWAAQEPHRHSIFTPETNPRAGLEKNYCRNPDGDVGGPWCYTTNPRKLYDYCDVPQCAAPSFDCGKPQVEPKKCPGR
Plasmin light chain B: VVGGCVAHPHSWPWQVSLRTRFGMHFCGGTLISPEWVLTAAHCLEKSPRPSSYKVILGAHQEVNLEPHVQEIEVSRLFLEPTRKDIALLKLSSPAVITDKVIPACLPSPNYVVADRTECFITGWGETQGTFGAGLLKEAQLPVIENKVCNRYEFLNGRVQSTELCAGHLAGGTDSCQGDSGGPLVCFEKDKYILQGVTSWGLGCARPNKPGVYVRVSRFVTWIEGVMRNN
modifications: Plasmin
fibrinolytic activity (mAbs/min) (fibrin clot; plasmin 0.5 mU): 1 mAbs/min
fibrinolytic activity (mAbs/min) (fibrin clot; plasmin 1 U): 190 mAbs/min
fibrinolytic activity (mAbs/min) (fibrin clot; plasmin 5 mU): 68 mAbs/min
fibrinolytic activity (mAbs/min) (fibrin clot; plasmin 50 mU): 126 mAbs/min
fibrinolytic activity (mAbs/min) (fibrin clot; plasmin 500 mU): 178 mAbs/min
